Experimental findings from patent US20040248926A1, “Preventive or remedy for pruritus” (priority 2001, published 2004) are described below.

Format in all cases: in vivo
Series [1] has as its system poly-L-arginine-induced scratching. The series can be described thus: Inhibitory effect on poly-L-arginine-induced scratching. As to conditions: rats. As to the method: The experiment was carried out according to the method of Hayashi, et al. [Eur. J. Pharmacol., Vol. 425, pp. 219-227 (2001)].
Male Wistar rats of 5 weeks (supplied by Japan SLC) were used in the test. 4 to 6 rats were put in each plastic cage and reared by allowing them to freely take commercially available solid feed and water, in an animal room at 19-25° C., 30-70% humidity and a 12 h lighting cycle (lighting: 7:00 a.m. to 7:00 p.m.) a day.
Every rat was shaven on the back, individually put in an acrylic monitor cage (200×145×170 mm), and acclimated therein for 30 minutes. 50 μl of a solution of poly-L-arginine (by Sigma) (4 mg of poly-L-arginine was dissolved in 1 ml of physiological saline) was intracutaneously injected into the interscapular region of each rat. For 30 minutes immediately after this, the behavior of every rat was recorded with a 8-mm video camera recorder. The video was reproduced, and the number of the scratching by its back paws at around the area where the solution had been intracutaneously injected was counted for 30 minutes immediately after the intracutaneous administration. Each rat scratched itself a few times per about one second, and a series of these actions of each rat was counted as one.
Compound 1 was suspended in aqueous 0.5 w/v % methyl cellulose solution to have a concentration of 0.1 or 1 mg/ml. […]

For series [2], the system named is compound 48/80-induced scratching. Description: Inhibitory effect on compound 48/80-induced scratching in mice. As to conditions: for number of the scratching: mean ± standard error; for effect on compound 48/80-induced scratching (in words): mice, p.o. As to the method: The experiment was carried out according to the method of Kuraishi, et al. [Eur. J. Pharmacol., Vol. 275, pp. 229-233 (1995)).
Male ddY mice each weighing 19 to 22 g (supplied by Japan SLC) were used in the test. 25 to 26 mice were put in each plastic cage and reared by allowing them to freely take commercially available solid feed and water, in an animal room at 19-25° C., 30-70% humidity and a 12 h lighting cycle (lighting: 7:00 a.m. to 7:00 p.m.) a day.
0.1 ml of a solution of compound 48/80 (by Sigma) (0.1 mg of compound 48/80 was dissolved in 1 ml of physiological saline) was subcutaneously injected into the right-side back shoulder of each mouse, and all the mice were individually put in a transparent cage. For 1 hour immediately after this, the behavior of every mouse was recorded with an 8-mm video camera recorder. The video was reproduced, and the number of the scratching by its right hind paw was counted for 1 hour immediately after the subcutaneous administration, at intervals of 5 minutes or 10 minutes, and the data of every 5 or 10 minutes were totaled. Each mouse scratched itself a few times per about one second, and a series of these actions of each mouse was counted as one.
Compound 1 and Compound 2 were separately suspended in aqueous 0.5 w/v % methyl cellulose solution to have a concentration of 3 mg/ml. The suspension of Compound 1 was further diluted with aqueous 0.5w/v % methyl cellulose solution, and suspensions or solutions for administration each having an intended concentration were prepared. The solvent (aqueous 0.5 w/v % methyl cellulose solution) or the suspension or solution for administration was orally administered to each mouse, 30 minutes before the subcutaneous injection of the compound 48/80, and its volume was 10 ml/kg. The solvent-administered mice were a control group.

A short description of a further series: Acute toxicity test. As to conditions: oral administration, male dd mice, mortality on the seventh day. As for the experimental part:
The test compound was administered orally or intraperitoneally to three/group male dd mice (body weight: 20±1 g). The minimum lethal dose (MLD) was obtained by observing the mortality on the seventh day after the administration.

For `C[C@](O)(C(=O)Nc1cccc2c1C(=O)c1sccc1CS2(=O)=O)C(F)(F)F` [Compound 1, (S)-(+)-3,3,3-trifluoro-2-hydroxy-2-methyl-N-(5,5,10-trioxo-4,10-dihydrothieno[3,2c][1]benzothiepin-9-yl)propanamide], the “Number of Scratching Actions for 30 minutes” value in series [1] (10 mg/kg p.o., 2 hours before intracutaneous poly-L-arginine, mean ± standard error, n = 8) came to 14 ± 3. In addition, the “effect on poly-L-arginine-induced pruritic behavior (in words)” value in series [1] (p.o.) is given as “inhibited”. Moreover, the “number of the scratching” value in series [2] (3 mg/kg p.o., 0-5 min after subcutaneous injection of compound 48/80, totaled, n = 4) worked out at 3 ± 1; in series [2] (3 mg/kg p.o., 5-10 min after subcutaneous injection, totaled, n = 4), 7 ± 2; in series [2] (3 mg/kg p.o., 10-15 min after subcutaneous injection, totaled, n = 4), 9 ± 1; in series [2] (3 mg/kg p.o., 15-20 min after subcutaneous injection, totaled, n = 4) it was 12 ± 4; in series [2] (3 mg/kg p.o., 20-25 min after subcutaneous injection, totaled, n = 4), 13 ± 4; in series [2] (3 mg/kg p.o., 25-30 min after subcutaneous injection, totaled, n = 4) it was 14 ± 5. Also, the “number of the scratching” value in series [2] (3 mg/kg p.o., 30-35 min after subcutaneous injection, totaled, n = 4) stood at 15 ± 5; in series [2] (3 mg/kg p.o., 35-40 min after subcutaneous injection, totaled, n = 4), 15 ± 5; in series [2] (3 mg/kg p.o., 40-45 min after subcutaneous injection, totaled, n = 4), 17 ± 6; in series [2] (3 mg/kg p.o., 45-50 min after subcutaneous injection, totaled, n = 4) it was 18 ± 6; in series [2] (3 mg/kg p.o., 50-55 min after subcutaneous injection, totaled, n = 4) it was 18 ± 6; in series [2] (3 mg/kg p.o., 55-60 min after subcutaneous injection, totaled, n = 4), 18 ± 6. Moreover, the “number of the scratching” value in series [2] (10 mg/kg p.o., 0-5 min after subcutaneous injection, totaled, n = 4) stood at 2 ± 1; in series [2] (10 mg/kg p.o., 5-10 min after subcutaneous injection, totaled, n = 4), 6 ± 2; in series [2] (10 mg/kg p.o., 10-15 min after subcutaneous injection, totaled, n = 4), 8 ± 2; in series [2] (10 mg/kg p.o., 15-20 min after subcutaneous injection, totaled, n = 4), 9 ± 2; in series [2] (10 mg/kg p.o., 20-25 min after subcutaneous injection, totaled, n = 4) it was 10 ± 3; in series [2] (10 mg/kg p.o., 25-30 min after subcutaneous injection, totaled, n = 4), 10 ± 3. Further, the “number of the scratching” value is listed as 11 ± 3 in series [2] (10 mg/kg p.o., 30-35 min after subcutaneous injection, totaled, n = 4); 11 ± 3 in series [2] (10 mg/kg p.o., 35-40 min after subcutaneous injection, totaled, n = 4); 12 ± 3 in series [2] (10 mg/kg p.o., 40-45 min after subcutaneous injection, totaled, n = 4); 12 ± 3 in series [2] (10 mg/kg p.o., 45-50 min after subcutaneous injection, totaled, n = 4); 12 ± 3 in series [2] (10 mg/kg p.o., 50-55 min after subcutaneous injection, totaled, n = 4); 12 ± 3 in series [2] (10 mg/kg p.o., 55-60 min after subcutaneous injection, totaled, n = 4). In addition, the “number of the scratching” value in series [2] (30 mg/kg p.o., 0-5 min after subcutaneous injection, totaled, n = 4) is reported as 0 ± 0; in series [2] (30 mg/kg p.o., 5-10 min after subcutaneous injection, totaled, n = 4) it was 0 ± 0; in series [2] (30 mg/kg p.o., 10-15 min after subcutaneous injection, totaled, n = 4) it was 1 ± 1; in series [2] (30 mg/kg p.o., 15-20 min after subcutaneous injection, totaled, n = 4), 2 ± 1; in series [2] (30 mg/kg p.o., 20-25 min after subcutaneous injection, totaled, n = 4), 3 ± 1; in series [2] (30 mg/kg p.o., 25-30 min after subcutaneous injection, totaled, n = 4), 3 ± 1. For the same compound, the “number of the scratching” value in series [2] (30 mg/kg p.o., 30-35 min after subcutaneous injection, totaled, n = 4) was 4 ± 1; in series [2] (30 mg/kg p.o., 35-40 min after subcutaneous injection, totaled, n = 4), 4 ± 1; in series [2] (30 mg/kg p.o., 40-45 min after subcutaneous injection, totaled, n = 4), 4 ± 1; in series [2] (30 mg/kg p.o., 45-50 min after subcutaneous injection, totaled, n = 4), 4 ± 1; in series [2] (30 mg/kg p.o., 50-55 min after subcutaneous injection, totaled, n = 4), 4 ± 1; in series [2] (30 mg/kg p.o., 55-60 min after subcutaneous injection, totaled, n = 4) it was 4 ± 1. For the same compound, the “effect on compound 48/80-induced scratching (in words)” value in series [2] is listed as “inhibited”. In addition, in “Acute toxicity test”, the “minimum lethal dose (MLD)” value is over 1000 mg/kg.

For `CC(C)(O)C(=O)Nc1cccc2c1C(=O)c1sccc1CS2(=O)=O` [Compound 2, 2-hydroxy-2-methyl-N-(5,5,10-trioxo-4,10-dihydrothieno [3,2c][1]benzothiepin-9-yl)propanamide], the “number of the scratching” value in series [2] (30 mg/kg p.o., 0-10 min after subcutaneous injection, totaled, n = 10) is listed as 10 ± 2; in series [2] (30 mg/kg p.o., 10-20 min after subcutaneous injection, totaled, n = 10), 11 ± 3; in series [2] (30 mg/kg p.o., 20-30 min after subcutaneous injection, totaled, n = 10), 14 ± 2; in series [2] (30 mg/kg p.o., 30-40 min after subcutaneous injection, totaled, n = 10) it was 14 ± 2; in series [2] (30 mg/kg p.o., 40-50 min after subcutaneous injection, totaled, n = 10), 14 ± 2; in series [2] (30 mg/kg p.o., 50-60 min after subcutaneous injection, totaled, n = 10) it was 14 ± 2. In addition, the “effect on compound 48/80-induced scratching (in words)” value in series [2] is “inhibited”.
